In US20250049747A1, “USE OF HYPERPOLARIZING AGENTS ALONE AND IN COMBINATION WITH OTHER THERAPEUTIC AGENTS FOR TREATING CANCERS INCLUDING GLIOBLASTOMA” (Trustees of Tufts College, priority 2021, published 2025):
“Also recorded” adds a separate entry of the source.

Key:
U87 cells = test: Physiological dye staining of U87 cells (DiBAC4(3), pHrodo Green, LysoSensor Green, Fluo-4 AM); format: cell-based, human
Description: Dye Staining Protocols. For the Live/Dead assay, 1 μM Calcein Green AM and 0.5 μM ethidium homodimer-1 (L3224, ThermoFisher) were added to PBS along with 10 μg/mL of Hoechst to make the staining solution. Half the media was removed from the human neuronal cells that had been incubated with treatments for 3 days and replaced with staining solution. […] Cells were then incubated for 15 min at 37° C. and imaged. For resting membrane potential staining, DiBAC4(3) was used. U87 cells were seeded at 10,000 cells per mL on Matrigel coated plates as described above. Cells were treated with drugs for 6 days with changes in media every other day. On day 6 the media was removed and washed once with dye buffer consisting of Hank's Balanced Salt Solution (HBSS) with 20 mM HEPES at pH 7.4 and then the staining solution, consisting of dye buffer with 2 μM DiBAC4(3) was added to the cells and allowed to incubate for 30 min at 37° C. The staining solution was then removed and fresh staining solution containing the treatments were added to the cells. For cytoplasmic calcium staining, Fluo-4 AM was used. The staining solution consisted of dye buffer with 4 μM Fluo-4 AM and a 1:1 ratio of Pluronic F-127 (20% in DMSO) and allowed to incubate for 30 min at room temperature. The staining solution was then removed, and fresh dye buffer was added and allowed to incubate for 20 min at 37° C. Then dye buffer containing the treatments were added to the cells. For cytoplasmic pH staining, pHrodo Green was used. The staining solution consisted of dye buffer with a 1:1000 dilution of the pHrodo Green stock and a 1:100 dilution of the PowerLoad concentrate (P35373, ThermoFisher). The cells were allowed to incubate for 30 min at 37° C. Staining solution was removed and washed once with dye buffer then fresh dye buffer containing the treatments were added and allowed to incubate for 5 min at 37° C. Calibration curve was done by instead adding the components of the intracellular pH calibration kit (P35379 ThermoFisher). For lysosomal pH staining, LysoSensor Green was used. The staining solution consisted of dye buffer with a 1 μM dilution of LysoSensor Green DND-187 (L7535 ThermoFisher). The cells were incubated as above and staining solution was removed and replaced with dye buffer containing 2.5 μg/mL Hoechst 33342 for 10 min. Hoechst was removed and cells were washed with dye buffer one time before adding dye buffer containing the treatments. Cells were imaged using an EVOS M7000 system outfitted with a GFP filter cube for stains and a DAPI filter for Hoechst. Images were then analyzed using a CellProfiler pipeline.

NG108-15 cells [1] = test: Growth and FUCCI assays in NG108-15 cells (cell counts, cell cycle, recovery test); details: for fold decrease in proliferation compared to control: high serum; for FUCCI cell cycle proportion: NG108-15, day 6
Description: Cells were plated in 96 well plates at a low confluence and drugs were added fresh every other day for 6 days. Some studies removed the drug at 6 days and added media with no drug for an additional 4 days to test for proliferation. Images of the cells were taken every day and a cell profiler pipeline was used to count the cells and determine the ratio of cells in each part of the cell cycle. […] Cell Culture. […] Cells were disassociated with Accutase and passaged when 70% confluent and maintained at 37° C. with 5% C02. Media was changed every two days. […] All drug screens including controls were done using 0.02% DMSO in the high serum Fluorobrite DMEM.
Growth and FUCCI assays. Both cell lines were plated at 5,000 cells per mL into black-walled flat-bottom 96-well plates coated with 1/50 dilution of Matrigel. Images of cells were taken on Day 0 and every subsequent day for 10 days using a Zeiss Axio1 fitted with an on-stage incubator and kept at 37° C. with 5% C02. A 5× objective was used along with filters for YFP, RFP, and CFP and careful calibration of each plate was done to ensure that the same fields of view were imaged each day. Drugs were added after the initial images were taken and then changed every two days until day 6. For recovery experiments, after imaging on day 6, all drugs were removed, and cells were put into imaging media without any added drugs. This media was changed every two days until day 10. Analysis of growth and snap shots of FUCCI reporters over the 6 days or 10 days was done using a CellProfiler [72]pipeline designed by the Broad. The fractional difference in cell number was calculated by dividing the total number of cells each day by the total number of cells from day 0. The ratio of cells in each cell cycle stage every day was determined by counting all the nuclei of one color and dividing it by the total number of nuclei. Blind quality control was done on all the images to make sure that any fibers or image artifacts were not incorrectly counted by the program.

NG108-15 cells [2] = test: Antibody staining, BrdU and senescence assays in NG108-15 cells; format: cell-based, mouse/rat; details: NG108-15, 6 days
Description: Antibody Staining, BrdU and Senescence Assays. NG108-15 cells were plated on PEI and Matrigel coated plates at 15,000 or 30,000 cells/mL, U87 cells at 10,000 cells/mL and grown in imaging media for 6 days with drug treatment. Fresh media was added every 2 days. On day 6, cells were fixed with 4% formaldehyde in PBS for 30 minutes for all antibody staining, except for BrdU which was fixed for 15 minutes, and for the senescence assay which was fixed for 20 min using the Senescence Beta-Galactosidase Staining Kit (9860, CellSignaling) and thereafter stained according to manufacturer's protocol. After fixing, cells were washed twice with PBS, and were permeabilized in PBS with 0.3% Triton-X for 15 min then washed again twice with PBS. The cells for the BrdU assay were additionally treated with 1N HCl for 10 min on ice, followed by a treatment with 2N HCl for 50 min at room temp. Cells were then blocked with standard blocking buffer comprised of TBS containing 10% goat serum, 0.1% BSA, and with 0.05% Tween 20 or without detergent for antibodies against phosphorylated proteins or monoclonal antibodies except for Anti-YAP and Anti-BrdU staining, which were done according to manufacturer's protocol. Primary antibodies were added at the following concentrations: 1:250 anti-S100 beta (GTX129573, Genetex), 1:500 anti-GFAP (AB5804, EMD-Millipore), 1:300 anti-SOX10 (ab155279, Abcam), 1:100 MAP2 (4542, CellSignaling), 1:400 anti-cleaved caspase 3 (9661, CellSignaling), 1:300 anti-Cx43 (STJ2411, St. John's Labratory), 1:800 anti-p27^Kip1 (3698, CellSignaling), 1:150 anti-BrdU (5292, CellSignaling), 1:125 anti-LC3-II (2775, CellSignaling), 8 μg/mL anti-04 (MAB1326, R&D Systems), 1:1000 anti-TH (RPCA-TH, Encor), 1:4000 anti-NSE (RPCA-NSE, Encor), 1:4000 anti-NFM (RPCA-NF-M, Encor), 0.5 μg/mL anti-TujI (801202, Biolegend), 1:400 anti-NF-KB p65 (8242, CellSignaling), 1:125 anti-phospho CREB (05-807, EMD-Millipore), 1:250 anti-vimentin (ab92547, Abcam), 1:125 anti-YAP (14074, CellSignaling). Antibodies were diluted in their respective blocking buffer and incubated overnight at 4° C. The next day, cells were washed with TBS-T or TBS for 3× for 5 min each and secondary antibody was added as follows: 1:1000 donkey anti-mouse 647 (A-31571, Thermo-Fisher) or 1:1000 donkey anti-rabbit 647 (A-31573, Thermo-Fisher). Each were diluted in blocking buffer along with 2.5 μg/mL Hoechst 33342 and incubated for 1 hour at room temperature. Cells were then washed again with TBS-T or TBS for 3× for 5 min each and covered with Gelvatol. Cells were imaged with an EVOS M7000 system, with at least 50% of each well in a 96 well plate imaged and analyzed using a CellProfiler pipeline for measuring integrated intensity, mean intensity, or nuclear to cytoplasmic ratio of mean intensities.

[3] = test system: human glioblastoma U87 cells; test: Growth and FUCCI assays in U87 cells (cell counts, cell cycle, recovery test); format: cell-based; details: for FUCCI cell cycle proportion: U87, day 6; for recovery of proliferation after treatment removed: U87, drugs removed at day 6, followed to day 10
Description: U87 (ATCC) cells were cultured under the same conditions as the NG108-15 cells minus the HAT supplement and used at passage 7-10 for experiments.

Compound	resting membrane potential by voltage dye DiBAC4(3) (U87 cells; U87, 6 day treated)	cytoplasmic calcium levels (Fluo-4AM) (U87 cells; U87, 6 days)	lysosomal pH (LysoSensor Green) (U87 cells; U87, 6 days)	fold decrease in proliferation compared to control (NG108-15 cells [1]; NG108-15, 6 days of treatment, NS1643 at 20 μM)	fold decrease in proliferation compared to control (NG108-15 cells [1]; NG108-15, 6 days of treatment, NS1643 at 50 μM)	FUCCI cell cycle proportion (NG108-15 cells [1])	cleaved caspase 3 staining (NG108-15 cells [2])	size of the nuclei (NG108-15 cells [2])	fold decrease in cell proliferation to control ([3]; U87, 6 days, NS1643 at 50 μM)	FUCCI cell cycle proportion [3]	recovery of proliferation after treatment removed [3]	lysosomes (LysoSensor Green signal) (U87 cells; U87, 6 days)	cell proliferation compared to control (words) (NG108-15 cells [1]; NG108-15, 6 days of treatment)	recovery of proliferation after treatment removed (NG108-15 cells [1]; NG108-15, drugs removed at day 6, followed to day 10)	BrdU incorporation (NG108-15 cells [2])	S100B and GFAP markers (NG108-15 cells [2])	connexin 43 (Cx43) expression (NG108-15 cells [2])	senescence-associated beta-galactosidase activity stain (NG108-15 cells [2])	cell proliferation compared to single compound alone ([3]; U87, 6 days)	percent reduction in cells compared to control ([3]; U87, 6 days of treatment)
O=C(Nc1cc(C(F)(F)F)ccc1O)Nc1cc(C(F)(F)F)ccc1O [NS1643]	significant hyperpolarization	increase cytoplasmic calcium levels	dramatic alkalization of the lysosomes	about 1.6 fold	~2.4 fold	did not seem to affect the cell cycle proportion	decrease the cleaved caspase 3 positive cells significantly	significantly larger	1.7 fold	did not show a large change in proportion of cells	high increase in proliferation	–	–	–	–	–	–	–	–	–
COc1ccnc(C[S+]([O-])c2nc3ccc(OC(F)F)cc3[nH]2)c1OC (centres unmarked) [Pantoprazole, pantoprazole]	–	–	did not show an alkalinization of the lysosome	–	–	increase in cells arrested at late S phase; also recorded: increases the proportion of cells in early S	significant increase in cleaved caspase 3 staining	significantly larger	–	increase in the early S proportion of cells	immediately re-entered the cell cycle	significant increase in lysosomes	very significant decrease in cell proliferation	immediately re-entered the cell cycle	significant decrease	significantly upregulated	increase in connexin 43 (Cx43) expression	very significant increase	significantly more effective at reducing cell proliferation after 6 days of treatment than TMZ alone	54%
